Data: PubChem BioAssay (NCI)
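Cells were grown in 96-well plates and exposed to each compound for 48 hours at five concentrations; endpoints were interpolated linearly between bracketing concentrations, or set to the highest concentration if not reached. The concentration for 50% growth inhibition is given as GI50. TGI marks complete inhibition of growth.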

Tests used:
Experiment in all cases: NCI tumour cell line growth inhibition, 48 h
[1] = system: U251 CNS
[2] = system: MDA-MB-231 breast
[3] = system: SF-268 CNS
[4] = system: SK-MEL-2 melanoma
[5] = system: RPMI-8226 leukemia
[6] = system: OVCAR-5 ovarian
[7] = system: T-47D breast
[8] = system: CCRF-CEM leukemia
[9] = system: LOX IMVI melanoma
[10] = system: A549 NSCLC
[11] = system: HL-60(TB) leukemia
[12] = system: MDA-MB-435
[13] = system: COLO 205 colon
[14] = system: KM12 colon
[15] = system: SR leukemia
[16] = system: DU-145 prostate
[17] = system: NCI-H226 lung
[18] = system: CAKI-1 renal
[19] = system: UO-31 renal
[20] = system: NCI-H522 lung
[21] = system: A498 renal
[22] = system: HS 578T breast
[23] = system: HCC-2998 colon
[24] = system: BT-549 breast
[25] = system: SF-539 CNS
[26] = system: OVCAR-4 ovarian
[27] = system: PC-3 prostate
[28] = system: MCF7 breast
[29] = system: HCT-15 colon
[30] = system: MOLT-4 leukemia

Structure (SMILES): Cn1cc(-c2cc(N)n3nc(-c4c[nH]c5ccccc45)cc3n2)c2cc(Cl)ccc21
- GI50 [1]: 2.01 µM
- TGI [1]: 4.44 µM
- GI50 [2]: 1.9 µM
- TGI [2]: 3.61 µM
- GI50 [3]: 5.21 µM
- TGI [3]: 26.6 µM
- GI50 [4]: 6.75 µM
- TGI [4]: 24 µM
- GI50 [5]: 3.42 µM
- TGI [5]: 29 µM
- GI50 [6]: 2.09 µM
- TGI [6]: 4.81 µM
- GI50 [7]: 4.44 µM
- TGI [7]: 20 µM
- GI50 [8]: 3.22 µM
- TGI [8]: > 100 µM
- GI50 [9]: 1.71 µM
- TGI [9]: 3.08 µM
- GI50 [10]: 3.15 µM
- TGI [10]: 13 µM
- GI50 [11]: 2.91 µM
- TGI [11]: 13.7 µM
- GI50 [12]: 3.69 µM
- TGI [12]: 13.4 µM
- GI50 [13]: 2.17 µM
- TGI [13]: 4.26 µM
- GI50 [14]: 2.55 µM
- TGI [14]: 6.63 µM
- GI50 [15]: 0.857 µM
- TGI [15]: > 100 µM
- GI50 [16]: 5.69 µM
- TGI [16]: 22.5 µM
- GI50 [17]: 14.1 µM
- TGI [17]: 47.1 µM
- GI50 [18]: 2.96 µM
- TGI [18]: 12.4 µM
- GI50 [19]: 4.22 µM
- TGI [19]: 16.9 µM
- GI50 [20]: 1.64 µM
- TGI [20]: 3.43 µM
- GI50 [21]: 10.1 µM
- TGI [21]: 22 µM
- GI50 [22]: 4.06 µM
- TGI [22]: 24.3 µM
- GI50 [23]: 1.8 µM
- TGI [23]: 3.41 µM
- GI50 [24]: 16.9 µM
- TGI [24]: 31.9 µM
- GI50 [25]: 1.81 µM
- TGI [25]: 3.66 µM
- GI50 [26]: 7.3 µM
- TGI [26]: 29.7 µM
- GI50 [27]: 3.15 µM
- TGI [27]: 11.4 µM
- GI50 [28]: 1.65 µM
- TGI [28]: 3.58 µM
- GI50 [29]: 1.72 µM
- TGI [29]: 3.29 µM
- GI50 [30]: 1.87 µM
